Where two headings read alike, the source gives them in different places.
Columns and labels:
[1] = Phase 1 clinical study: plasma pharmacokinetics of prodrug and ibuprofen; type: in vivo, human; conditions: 70 mg; for AUC0-12 / Cmax: human, plasma; for AUC0-12: read-out: prodrug AUC0-12, geometric mean; for Cmax: read-out: prodrug Cmax, geometric mean
Procedure: Following a 5-day washout period, 2-(diethylamino)ethyl 2-(4-isobutylphenyl)propionate was administered b.i.d. during Days 6-11, and a morning dose only was administered to Day 12. Blood samples were collected for PK analysis over the 120-hour post-dose period following the Day 12 dose. Additionally, pre-dose blood samples were collected on Day 7 through Day 11 to evaluate steady-state status.
The same study procedures were followed as described in Part 1.
For single dose PK, serial blood samples were collected on Day 1 dose at the following time points: 0 (pre-dose), 0.25, 0.5, 0.75, 1, 1.5, 2, 2.5, 3, 4, 5, 6, 8, 10, 12, 18, 24, 48, 72, 96 and 120 hours post-dose.
For multiple-dose PK, serial blood samples were collected on Day 12 at the following time points: 0 (pre-dose), 0.25, 0.5, 0.75, 1, 1.5, 2, 2.5, 3, 4, 5, 6, 8, 10, 12, 18, 24, 48, 72, 96 and 120 hours post-dose.
The relative bioavailability of the single dose 70 mg topical application vs. 70 mg spray application was determined based on AUCtau, AUCinf and Cmax. The 90% confidence intervals (CIs) on the ratio of topical application vs. spray application were calculated.

[2] = test system: osteoarthritis of the knee; conditions: cited from earlier work
Osteoarthritis [3] = conditions: n=107; placebo −33.6; cited from earlier work
Osteoarthritis [4] = conditions: cited from earlier work
[5] = topical or ocular, Day 1, 70 mg topical
[6] = topical or ocular, Day 12, 70 mg topical

Compound: CCN(CC)CCOC(=O)C(C)c1ccc(CC(C)C)cc1.Cl (stereo not drawn) [2-(diethylamino)ethyl 2-(4-isobutylphenyl)propionate hydrochloride]
- prodrug AUC0-12 ratio Topical/Spray ([1]; Day 1): 3.28
- prodrug Cmax ratio Topical/Spray ([1]; Day 1): 1.34
- prodrug AUC0-12 ratio Topical/Spray ([1]; Day 12): 0.91
- prodrug Cmax ratio Topical/Spray ([1]; Day 12): 0.93
- AUC0-12 [1, 5]: 0.913 ng·h/mL
- Cmax [1, 5]: 0.138 ng/mL
- AUC0-12 [1, 6]: 0.953 ng·h/mL
- Cmax [1, 6]: 0.143 ng/mL
- AUC0-12 ([1]; topical, Day 1, 70 mg spray): 0.279 ng·h/mL
- Cmax ([1]; topical, Day 1, 70 mg spray): 0.102 ng/mL
- AUC0-12 ([1]; topical, Day 12, 70 mg spray): 1.05 ng·h/mL
- Cmax ([1]; topical, Day 12, 70 mg spray): 0.155 ng/mL

Compound: COc1ccc2cc([C@H](C)C(=O)O)ccc2c1 [Naproxen]
- average daily paracetamol use ([2]; naproxen group): 670 mg
- Patient's Assessment of Arthritis Pain (VAS 0-100 mm), change (Osteoarthritis [3]): −37.5 mm
- difference from placebo, sign and symptoms of OA (Osteoarthritis [4]; 500 mg BID oral, Week 12): −5.8
- patients improved by 2 grades or more from baseline (physician's global assessment) (Osteoarthritis [4]; 500 mg BID): 33%
- Mean ± SEM WOMAC Osteoarthritis Index Composite Score Change from Baselines (Osteoarthritis [4]; 500 mg, BID, orally, 12 Weeks, scale 0 to 96): −11.9 ± 1.29

Compound: COc1ccc2cc([C@H](C)C(=O)OCCCCO[N+](=O)[O-])ccc2c1 [naproxcinod]
- decrease of paracetamol use vs placebo group ([2]; active groups): 19.2% to 24.9
